Molecular target: T1, human V3 receptor (Homo sapiens, UniProt P47901)
T1 construct: expressed in transfected cells
T1 sequence (P47901 1-424): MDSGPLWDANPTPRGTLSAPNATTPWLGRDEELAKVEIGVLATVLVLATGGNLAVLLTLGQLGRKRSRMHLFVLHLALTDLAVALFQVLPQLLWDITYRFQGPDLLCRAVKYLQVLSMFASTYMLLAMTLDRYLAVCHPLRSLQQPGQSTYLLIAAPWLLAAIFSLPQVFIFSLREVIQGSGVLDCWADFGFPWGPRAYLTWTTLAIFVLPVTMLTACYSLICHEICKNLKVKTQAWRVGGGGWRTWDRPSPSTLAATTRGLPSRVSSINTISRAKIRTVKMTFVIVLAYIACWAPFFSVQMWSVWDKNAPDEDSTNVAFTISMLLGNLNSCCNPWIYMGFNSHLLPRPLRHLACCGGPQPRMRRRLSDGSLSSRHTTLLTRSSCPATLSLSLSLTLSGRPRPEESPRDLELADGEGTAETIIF
Assay: [3H]AVP binding to CHO cells stably expressing the human V3 receptor
Conditions: [3H]AVP 2.5x10^-9 mol/L
Experimental: Chinese Hamster Ovary (CHO) cells stably expressing the human V3 receptor were incubated to equilibrium with the test compound (at a final assay concentration of 10^−10 mol.L^−1 to 10^−5 mol.L^−1) and [^3H]AVP (at a final assay concentration of 2.5×10^−9 mol.L^−1). […] After washing with ice-cold phosphate buffered saline (PBS), scintillation fluid was added and the plates counted on a Topcount NXT apparatus.
A sigmoidal dose response curve (non-linear regression, variable slope) was plotted as concentration of test compound (mol.L^−1) against percentage specific binding of [^3H]AVP and a Ki value was calculated. Each determination was carried out in triplicate and repeated on at least 3 separate occasions

| Ki | SMILES |
| --- | --- |
| < 10 nM | COCCN1CCCN(c2ccc3nc(-c4cccc(OC)c4)n(CC(=O)NC(C)C)c(=O)c3c2)CC1 [Example 4d, N-Isopropyl-2-[6-[4-(2-methoxyethyl)perhydro-1,4-diazepin-1-yl]-2-(3-methoxyphenyl)-4-oxo-4H-quinazolin-3-yl]acetamide] |
| 10 to 100 nM | COc1cccc(-c2nc3ccc(N4CCNCC4)cc3c(=O)n2CC(=O)NC(C)C)c1 [Example 2b, N-Isopropyl-2-[2-(3-methoxyphenyl)-4-oxo-6-piperazin-1-yl-4H-quinazolin-3-yl]acetamide] |
| < 10 nM | CC(C)NC(=O)Cn1c(-c2cc(Cl)cc(OC(F)(F)F)c2)nc2ccc(N3CCCN(C(C)C)CC3)cc2c1=O [Example 6w, 2-[2-(3-Chloro-5-trifluoromethoxyphenyl)-6-(4-isopropylperhydro-1,4-diazepin-1-yl)-4-oxo-4H-quinazolin-3-yl]-N-isopropylacetamide] |
| < 10 nM | CC(C)NC(=O)Cn1c(-c2ccc(F)c(Cl)c2)nc2ccc(N3CCCN(CC(C)(C)C)CC3)cc2c1=O [Example 5Ac, 2-{2-(3-Chloro-4-fluorophenyl)-6-[4-(2,2-dimethylpropyl)perhydro-1,4-diazepin-1-yl]-4-oxo-4H-quinazolin-3-yl}-N-isopropylacetamide] |
| < 10 nM | CC(C)NC(=O)Cn1c(-c2cccc(Cl)c2)nc2ccc(N3CCCNCC3)cc2c1=O [Example 1b, 2-[2-(3-Chlorophenyl)-4-oxo-6-perhydro-1,4-diazepin-1-yl-4H-quinazolin-3-yl]-N-isopropylacetamide] |
| 10 to 100 nM | COc1cccc(-c2nc3ccc(N4CCCC(CN(C)C)C4)cc3c(=O)n2CC(=O)NC(C)C)c1 (centres unmarked) [Example 3c, 2-[6-(3-Dimethylaminomethyl-piperidin-1-yl)-2-(3-methoxyphenyl)-4-oxo-4H-quinazolin-3-yl]-N-isopropylacetamide] |
| < 10 nM | CC(C)NC(=O)Cn1c(-c2ccc(F)c(Cl)c2)nc2ccc(N3CCN(C)CC(C)(C)C3)cc2c1=O [Example 5s, 2-[2-(3-Chloro-4-fluorophenyl)-4-oxo-6-(4,6,6-trimethylperhydro-1,4-diazepin-1-yl)-4H-quinazolin-3-yl]-N-isopropylacetamide] |

The next lines start with the compound.

| SMILES | Ki |
| --- | --- |
| CC(C)(C)NC(=O)Cn1c(C2CCCC2)nc2ccc(N3CCCNCC3)cc2c1=O [Example 7a] | 10 to 100 nM |
| COCC(C)NC(=O)Cn1c(-c2ccc(F)c(OC)c2)nc2ccc(N3CCN4CCC3CC4)cc2c1=O (centres unmarked) [Example 9Ah, 2-[6-(1,4-Diazabicyclo[3.2.2]non-4-yl)-2-(4-fluoro-3-methoxyphenyl)-4-oxo-4H-quinazolin-3-yl]-N-(2-methoxy-1-methylethyl)acetamide] | 10 to 100 nM |
| CCN1CCCN(c2ccc3nc(-c4ccc(F)c(OC)c4)n(CC(=O)NC(C)(C)C(F)(F)F)c(=O)c3c2)CC1 [Example 9h, 2-[6-(4-Ethylperhydro-1,4-diazepin-1-yl)-2-(4-fluoro-3-methoxyphenyl)-4-oxo-4H-quinazolin-3-yl]-N-(2,212-trifluoro-1,1-dimethylethyl)acetamide] | < 10 nM |
| COc1cccc(-c2nc3ccc(N4CCCN(CC(F)(F)F)CC4)cc3c(=O)n2CC(=O)NC(C)C)c1 [Example 4c, N-Isopropyl-2-{2-(3-methoxyphenyl)-4-oxo-6-[4-(2,2,2-trifluoroethyl)Perhydro-1,4-diazepin-1-yl]-4H-quinazolin-3-yl}acetamide] | 100 to 1000 nM |
| COc1cccc(-c2nc3ccc(N4CCC[C@H](CN5CCCCC5)C4)cc3c(=O)n2CC(=O)NC(C)C)c1 [Example 3f, N-Isopropyl-2-[2-(3-methoxyphenyl)-4-oxo-6-((R)-3-piperidin-1-ylmethylpiperidin-1-yl)-4H-quinazolin-3-yl]acetamide] | < 10 nM |
| CC(C)N1CCCN(c2ccc3nc(-c4cccc(Cl)c4)n(CC(=O)N(C)C(C)C)c(=O)c3c2)CC1 [Example 9u, 2-[2-(3-Chlorophenyl)-6-(4-isopropylperhydro-1,4-diazepin-1-yl)-4-oxo-4H-quinazolin-3-yl]-N-isopropyl-N-methylacetamide] | 10 to 100 nM |

Molecular target: T2, V3 receptor (Rattus norvegicus, UniProt P48974)
T2 construct: Anterior pituitary corticotrophs were prepared from adult female Sprague-Dawley rats; endogenous in cells; host or cells: primary anterior pituitary corticotrophs from adult female Sprague-Dawley rats
T2 sequence (P48974 1-425): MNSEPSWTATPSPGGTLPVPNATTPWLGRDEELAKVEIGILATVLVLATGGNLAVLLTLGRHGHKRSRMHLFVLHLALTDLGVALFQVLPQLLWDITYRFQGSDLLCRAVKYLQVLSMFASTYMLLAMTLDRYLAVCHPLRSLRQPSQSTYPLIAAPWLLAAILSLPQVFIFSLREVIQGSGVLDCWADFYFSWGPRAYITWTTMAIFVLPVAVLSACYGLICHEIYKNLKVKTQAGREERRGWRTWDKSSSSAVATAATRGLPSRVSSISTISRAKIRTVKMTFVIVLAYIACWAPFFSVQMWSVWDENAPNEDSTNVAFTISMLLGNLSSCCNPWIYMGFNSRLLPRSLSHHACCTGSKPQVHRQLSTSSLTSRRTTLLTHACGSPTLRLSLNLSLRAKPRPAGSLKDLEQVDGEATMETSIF
Assay: Block of AVP-induced ACTH release from isolated rat anterior pituitary corticotrophs
Format: cell-based
Conditions: ACTH release after 3x10^-9 mol/L AVP for 120 minutes, ELISA; read-out: V3 receptor antagonism in isolated rat anterior pituitary cells
Experimental: The ability of compounds of the invention to act as V3 antagonists in a physiologically relevant system was determined by measuring their ability to block the release of adrenocorticotropic hormone (ACTH) from anterior pituitary corticotrophs in response to treatment with arginine vasopressin (AVP).
Anterior pituitary corticotrophs were prepared from adult female Sprague-Dawley rats and seeded into 48 well plates. The cells were cultured for 4 days prior to exposure to compound. Test compounds were prepared at […] in 100% DMSO. Cells were exposed to a dose response of test compounds for 20 minutes (10^−8 mol.L^−1-10^−5 mol.L^−1). The final concentration of DMSO in the assay was kept constant at 0.3%. The cells were then exposed to 3×10^−9 mol.L^−1 AVP for 120 minutes. Supernatants were harvested and stored at −20° C. ACTH levels were subsequently measured by ELISA following the manufacturer's instructions (Immunodiagnostic systems, UK (Cat No. DX-SDX018)). Each treatment was carried out in quadruplicate and a mean value obtained for the amount of ACTH released. The degree of antagonism was then calculated as a percentage of the amount of ACTH released by agonist alone after adjustment for basal levels of ACTH. A pIC50 was calculated by fitting a Sigmoidal dose response (variable slope) curve with a non-linear (fit) to the data using the software package GraphPad prism. […]

| IC50 | SMILES |
| --- | --- |
| 10 to 100 nM | COc1cccc(-c2nc3ccc(N4CCCN(C(C)C)CC4)cc3c(=O)n2CC(=O)NC(C)C)c1 [Example 4b, N-Isopropyl-2-[6-(4-isopropylperhydro-1,4-diazepin-1-yl)-2-(3-methoxyphenyl)-4-oxo-4H-quinazolin-3-yl]acetamide] |
